Reference: US20070010541A1, “Methods for treating vascular diseases” (The General Hospital Corporation, priority 2003, published 2007)

Columns and labels:
grl−/− embryos = assay: Whole-organism chemical suppressor screen: suppression of the gridlock phenotype, circulation to the tail; format: in vivo, zebrafish; details: for suppression of the gridlock phenotype (restoring circulation to the tail): grl−/− embryos in 96-well plates, circulation examined after 48 hours of development
Procedure: We arrayed grl−/− embryos in 96-well plates, exposed them to small molecules from a structurally-diverse chemical library, and examined their circulation after 48 hours of development. The compounds were purchased as 5 mg/mL stock solutions in DMSO from Cambridge Chemical.
Two of 5,000 small molecules examined suppress the gridlock phenotype in grl−/− embryos, restoring circulation to the tail (FIG. 1B). We confirmed the functional restoration of the aorta by microangiography (FIGS. 1A-B) and histology (FIGS. 1E-F).
Angioblasts in zebrafish are first evident around 14 hours postfertilization (hpf) and begin to aggregate at the midline by 16 hpf (Eriksson et al., J. Morphol. 244(3):167-176, 2000; Fouquet et al., Dev. Biol. 183(1):37-48, 1997). The lumen of the aorta begins to form in the posterior trunk at 17.5 hpf, but is not complete until just prior to the initiation of circulation 24 hpf. The critical period for gs4012 suppression is between 12 and 24 hpf (FIG. 2A).
Similarly, when gs4012 is added during gastrulation and washed away at later and later timepoints, the effectiveness of suppression is increased, reaching maximal suppression by […].

VEGF = assay: Real-time PCR quantitation of gene expression after gs4012 exposure; format: in vivo, zebrafish; details: 24 hpf
Procedure: In the case of real-time PCR, groups of 20 grl−/− embryos are left untreated or treated with a gridlock suppressor. At 24 hours post fertilization, total RNA can be extracted using the Trizol method. Equivalent amounts of total RNA from each sample can be reverse transcribed into cDNA. This cDNA can serve as template for real-time PCR to determine the relative expression quantities for the genes listed above. RT-PCR can be performed with an Applied Biosystems Sequence Detection System 7000. Taqman probes and primers can be designed using zebrafish genomic sequences made publicly available by the Wellcome Trust Sanger Institute.
We used real-time PCR to quantitate the expression of several genes believed to play roles in angioblast cell fate determination or migration. […] VEGF plays an important role in formation of the aorta. VEGF122 expression in the Xenopus hypochord acts as a chemoattractant, stimulating angioblast migration to the midline prior to aorta formation (Cleaver et al., Development 125(19):3905-3914, 1998). […]

| Structure (SMILES) | time at which maximal suppression is reached (grl−/− embryos; added during gastrulation and washed away at later timepoints) | reversibility of suppression after removal of the suppressor (grl−/− embryos; after removal of suppressor) | viability of rescued mutants (grl−/− embryos; after removal of suppressor) | suppression of the gridlock phenotype (restoring circulation to the tail) (grl−/− embryos) | relative potency as gridlock suppressor (grl−/− embryos; grl−/− embryos, dose response) | suppression when treatment begins after 24 hpf (grl−/− embryos; treatment begins after 24 hpf) | VEGF expression (VEGF) |
| --- | --- | --- | --- | --- | --- | --- | --- |
| COc1ccc(SCCc2ccncc2)cc1 [gs4012] | ≤ 30 hpf | suppression is irreversible | remain viable to adulthood | identified as gridlock suppressors | more potent suppressor than gs3999 | Little or no suppression | upregulated |
| O=[N+]([O-])c1ccc(SCCc2ccncc2)cc1 [gs3999] |  |  |  | identified as gridlock suppressors |  |  |  |
